# Reference: patent US9884063B2, “Amido-substituted azole compounds” (Bayer Pharma Aktiengesellschaft, priority 2014, dated 2018)
# Experiments:
# [1] = tested on: wildtype Wnt signaling cascade; test: HEK293 TOP Assay (Super TopFlash luciferase reporter, Wnt-3a stimulated); type: cell-based; conditions: Homo sapiens, HEK293, 16 h, HEK293 TOP reporter cell line, Wnt-3a at EC50, 16 hours incubation, compound dilution series 50 μM to 15 nM
# Procedure, shortened: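 Compounds (50 μM down to 15 nM, 3.16-fold steps, in CAFTY buffer pH 7.4, 2 mM Ca2+, 0.01% BSA) tested in parallel on TOP and FOP HEK293 reporter lines to define selective wildtype Wnt inhibition. Pathway driven by recombinant human Wnt-3a applied at 2500–5 ng/ml in two-fold dilutions.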
# TNKS2 = target: T1, TNKS2 (Homo sapiens, UniProt Q9H2K2); test: Modified TNKS2 Assay 2 (auto-parsylation, [3H]-NAD+ SPA); type: biochemical; conditions: 6 nM TNKS2, 96 well
# T1 sequence (Q9H2K2 1-1166): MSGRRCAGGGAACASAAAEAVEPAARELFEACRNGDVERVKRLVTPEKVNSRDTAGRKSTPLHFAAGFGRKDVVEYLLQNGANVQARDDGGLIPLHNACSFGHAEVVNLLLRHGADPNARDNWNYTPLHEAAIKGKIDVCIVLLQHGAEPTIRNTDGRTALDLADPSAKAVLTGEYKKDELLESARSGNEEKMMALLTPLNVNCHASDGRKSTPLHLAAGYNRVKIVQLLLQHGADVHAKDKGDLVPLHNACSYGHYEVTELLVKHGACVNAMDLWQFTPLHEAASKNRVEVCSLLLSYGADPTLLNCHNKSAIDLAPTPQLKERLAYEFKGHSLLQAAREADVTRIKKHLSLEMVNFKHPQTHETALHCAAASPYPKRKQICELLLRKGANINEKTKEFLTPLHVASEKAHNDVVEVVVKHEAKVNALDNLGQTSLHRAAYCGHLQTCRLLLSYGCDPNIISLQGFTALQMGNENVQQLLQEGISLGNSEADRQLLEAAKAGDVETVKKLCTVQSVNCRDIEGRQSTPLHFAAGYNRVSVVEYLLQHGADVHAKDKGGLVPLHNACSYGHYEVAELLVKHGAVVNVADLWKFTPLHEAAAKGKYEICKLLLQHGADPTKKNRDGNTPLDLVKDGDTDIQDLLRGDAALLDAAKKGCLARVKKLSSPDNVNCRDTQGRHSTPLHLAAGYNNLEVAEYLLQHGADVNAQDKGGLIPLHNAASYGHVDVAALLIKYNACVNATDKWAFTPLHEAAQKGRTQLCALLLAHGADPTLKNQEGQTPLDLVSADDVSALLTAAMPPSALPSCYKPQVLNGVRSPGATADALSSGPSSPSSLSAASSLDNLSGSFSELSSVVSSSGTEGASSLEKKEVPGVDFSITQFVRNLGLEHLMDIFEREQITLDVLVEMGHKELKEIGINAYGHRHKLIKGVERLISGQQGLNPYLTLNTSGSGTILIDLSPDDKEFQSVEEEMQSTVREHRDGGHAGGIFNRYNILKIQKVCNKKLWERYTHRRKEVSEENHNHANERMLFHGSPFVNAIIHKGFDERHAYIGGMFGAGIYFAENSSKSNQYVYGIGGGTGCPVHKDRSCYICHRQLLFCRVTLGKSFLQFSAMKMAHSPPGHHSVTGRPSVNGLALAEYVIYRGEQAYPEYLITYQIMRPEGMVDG
Compound,IC50 [1],IC50 (TNKS2)
"CN(C)CCNC(=O)c1nc[nH]c1C(=O)Nc1ccc(NC(=O)c2ccc(F)cc2)c(F)c1 [Example 77, N^4-[2-(dimethylamino)ethyl]-N^5-{3-fluoro-4-[(4-fluorobenzoyl)amino]phenyl}-1H-imidazole-4,5-dicarboxamide]",4400 nM,1800 nM
"CNC(=O)c1nc[nH]c1C(=O)Nc1ccc(NC(=O)c2ccccc2Cl)c(F)c1 [Example 80, N^5-{4-[(2-chlorobenzoyl)amino]-3-fluorophenyl}-N^4-methyl-1H-imidazole-4,5-dicarboxamide]",820 nM,700 nM
"CN(C)CCNC(=O)c1nc[nH]c1C(=O)Nc1ccc(NC(=O)c2ccccc2Cl)c(F)c1 [Example 81, N^5-{4-[(2-chlorobenzoyl)amino]-3-fluorophenyl}-N^4-[2-(dimethylamino)ethyl]-1H-imidazole-4,5-dicarboxamide]",660 nM,160 nM
"CCNC(=O)c1nc[nH]c1C(=O)Nc1ccc(NC(=O)c2cccc(OC)c2Cl)cc1 [Example 260, N^5-{4-[(2-chloro-3-methoxybenzoyl)amino]phenyl}-N^4-ethyl-1H-imidazole-4,5-dicarboxamide]",2100 nM,6200 nM
"CCNC(=O)c1nc[nH]c1C(=O)Nc1ccc(NC(=O)c2ncccc2Cl)cc1 [Example 261, N^5-(4-{[(3-chloropyridin-2-yl)carbonyl]amino}phenyl)-N^4-ethyl-1H-imidazole-4,5-dicarboxamide]",22200 nM,210 nM
"CCNC(=O)c1nc[nH]c1C(=O)Nc1ccc(NC(=O)c2cc(OC)ccc2Cl)cc1 [Example 264, N^5-{4-[(2-chloro-5-methoxybenzoyl)amino]phenyl}-N^4-ethyl-1H-imidazole-4,5-dicarboxamide]",1600 nM,480 nM
"O=C(Nc1ccc(NC(=O)c2nc[nH]c2C(=O)NCCN2CCC(F)(F)C2)cc1)c1ccc(F)cc1Cl [Example 279, N^4-{4-[(2-chloro-4-fluorobenzoyl)amino]phenyl}-N^5-[2-(3,3-difluoropyrrolidin-1-yl)ethyl]-1H-imidazole-4,5-dicarboxamide]",910 nM,20 nM
"O=C(Nc1ccc(NC(=O)c2nc[nH]c2C(=O)N[C@H]2CCNC2)cc1)c1ccc(F)cc1Cl [Example 281, N^4-{4-[(2-chloro-4-fluorobenzoyl)amino]phenyl}-N^5-[(3S)-pyrrolidin-3-yl]-1H-imidazole-4,5-dicarboxamide]",1200 nM,70 nM
"NCCNC(=O)c1[nH]cnc1C(=O)Nc1ccc(NC(=O)c2ccc(F)cc2Cl)cc1 [Example 290, N^5-(2-aminoethyl)-N^4-{4-[(2-chloro-4-fluorobenzoyl)amino]phenyl}-1H-imidazole-4,5-dicarboxamide]",710 nM,110 nM
"CC(CN1CCOCC1)NC(=O)c1[nH]cnc1C(=O)Nc1ccc(NC(=O)c2ccc(F)cc2)cc1 (centres unmarked) [Example 294, N^4-{4-[(4-fluorobenzoyl)amino]phenyl}-N^5-[1-(morpholin-4-yl)propan-2-yl]-1H-imidazole-4,5-dicarboxamide]",1550 nM,150 nM
"CNC(=O)c1nc[nH]c1C(=O)Nc1ccc(NC(=O)c2ccc(C#N)cc2)cc1 [Example 322, N^5-{4-[(4-cyanobenzoyl)amino]phenyl}-N^4-methyl-1H-imidazole-4,5-dicarboxamide]",2300 nM,950 nM
"CNC(=O)c1nc[nH]c1C(=O)Nc1ccc(NC(=O)c2ccc(Cl)cc2F)cc1 [Example 333, N^5-{4-[(4-chloro-2-fluorobenzoyl)amino]phenyl}-N^4-methyl-1H-imidazole-4,5-dicarboxamide]",950 nM,580 nM
"CNC(=O)c1nc[nH]c1C(=O)Nc1ccc(NC(=O)c2ccc(Br)cc2Cl)cc1 [Example 334, N^5-{4-[(4-bromo-2-chlorobenzoyl)amino]phenyl}-N^4-methyl-1H-imidazole-4,5-dicarboxamide]",860 nM,30 nM

# The next molecules have a lower IC50 [1] than those just listed; values first:
IC50 [1],IC50 (TNKS2),Compound
620 nM,260 nM,"Cc1cc(NC(=O)c2[nH]cnc2C(=O)NCCN(C)C)ccc1NC(=O)c1ccc(F)cc1Cl [Example 84, N^5-{4-[(2-chloro-4-fluorobenzoyl)amino]-3-methylphenyl}-N^4-[2-(dimethylamino)ethyl]-1H-imidazole-4,5-dicarboxamide]"
570 nM,110 nM,"O=C(Nc1ccc(NC(=O)c2nc[nH]c2C(=O)NCCN2CCCCC2)cc1OC(F)(F)F)c1ccc(F)cc1Cl [Example 293, N^4-{4-[(2-chloro-4-fluorobenzoyl)amino]-3-(trifluoromethoxy)phenyl}-N^5-[2-(piperidin-1-yl)ethyl]-1H-imidazole-4,5-dicarboxamide]"
410 nM,1000 nM,"CNC(=O)c1nc[nH]c1C(=O)Nc1ccc(NC(=O)c2cc(Br)ccc2Cl)cc1 [Example 313, N^5-{4-[(5-bromo-2-chlorobenzoyl)amino]phenyl}-N^4-methyl-1H-imidazole-4,5-dicarboxamide]"
360 nM,30 nM,"CN(C)CCNC(=O)c1nc[nH]c1C(=O)Nc1ccc(NC(=O)c2ccc(F)cc2Cl)c(F)c1 [Example 73, N^5-{4-[(2-chloro-4-fluorobenzoyl)amino]-3-fluorophenyl}-N^4-[2-(dimethylamino)ethyl]-1H-imidazole-4,5-dicarboxamide]"
360 nM,500 nM,"CCNC(=O)c1nc[nH]c1C(=O)Nc1ccc(NC(=O)c2cnccc2Cl)cc1 [Example 263, N^5-(4-{[(4-chloropyridin-3-yl)carbonyl]amino}phenyl)-N^4-ethyl-1H-imidazole-4,5-dicarboxamide]"
300 nM,60 nM,"CN1CCCC(CNC(=O)c2[nH]cnc2C(=O)Nc2ccc(NC(=O)c3ccc(F)cc3Cl)cc2)C1 (centres unmarked) [Example 298, N^4-{4-[(2-chloro-4-fluorobenzoyl)amino]phenyl}-N^5-[(1-methylpiperidin-3-yl)methyl]-1H-imidazole-4,5-dicarboxamide]"
280 nM,> 10000 nM,"O=C(Nc1ccc(NC(=O)c2[nH]cnc2C(=O)NCCN2CCCCC2)cc1F)c1ccc(F)cc1 [Example 78, N^5-{3-fluoro-4-[(4-fluorobenzoyl)amino]phenyl}-N^4-[2-(piperidin-1-yl)ethyl]-1H-imidazole-4,5-dicarboxamide]"
240 nM,340 nM,"CNC(=O)c1nc[nH]c1C(=O)Nc1ccc(NC(=O)c2cc(Cl)ccc2Cl)cc1 [Example 309, N^5-{4-[(2,5-dichlorobenzoyl)amino]phenyl}-N^4-methyl-1H-imidazole-4,5-dicarboxamide]"
160 nM,10 nM,"Cc1cc(NC(=O)c2[nH]cnc2C(=O)NCCN2CCCCC2)ccc1NC(=O)c1ccc(F)cc1Cl [Example 85, N^5-{4-[(2-chloro-4-fluorobenzoyl)amino]-3-methylphenyl}-N^4-[2-(piperidin-1-yl)ethyl]-1H-imidazole-4,5-dicarboxamide]"
140 nM,10 nM,"O=C(Nc1ccc(NC(=O)c2ocnc2C(=O)NCCN2CCCCC2)cc1)c1ccc(F)cc1Cl [Example 303, N^5-{4-[(2-chloro-4-fluorobenzoyl)amino]phenyl}-N^4-[2-(piperidin-1-yl)ethyl]-1,3-oxazole-4,5-dicarboxamide]"
90 nM,5 nM,"C[C@@H]1CCCN(CCNC(=O)c2[nH]cnc2C(=O)Nc2ccc(NC(=O)c3ccc(F)cc3Cl)cc2)C1 [Example 278, N^4-{4-[(2-chloro-4-fluorobenzoyl)amino]phenyl}-N^5-{2-[(3R)-3-methylpiperidin-1-yl]ethyl}-1H-imidazole-4,5-dicarboxamide]"
20 nM,3 nM,"C[C@@H]1CCCCN1CCNC(=O)c1[nH]cnc1C(=O)Nc1ccc(NC(=O)c2ccc(F)cc2Cl)cc1 [Example 267, N^4-{4-[(2-chloro-4-fluorobenzoyl)amino]phenyl}-N^5-{2-[(2R)-2-methylpiperidin-1-yl]ethyl}-1H-imidazole-4,5-dicarboxamide]"
